Assays:
B. tabaci = assay: Synergistic activity against B. tabaci, 3 days after nymph exposition (% control; Colby); assay type: in vivo, Bemisia tabaci
Protocol: (§1) A mixture combination were prepared by thoroughly mixing Tau-fluvalinate (weight %) with a crop protection chemical compound such as Flupyrimin, Isocycloseram, Methoxyfenozide and Garlic extract (weight %).
(§2) Different concentrations of each of the active ingredients may be applied to different species of insects. The percent controls are determined sometime after treatment.
(§3) A synergistic effect exists whenever the action of a combination of active ingredients is greater than the sum of the action of each of the ingredients alone. Therefore, a synergistic combination is a combination of active ingredients having an action that is greater than the sum of the action of each active ingredient alone, and a synergistically effective amount is an effective amount of a synergistic combination.
(§4) Colby's method is used to determine if synergy exists for a combination of active ingredients. According to Colby, the expected action (E) of active ingredients A+B is:
(§5) E=A+B−(AB/100) • where E=expected efficacy, A and B=the efficacy of two active ingredients A and B at a given dose.
(§6) When the percentage of control observed (O) for the combination is greater than the expected (E) percentage, there is a synergistic effect. The synergism ratio (R) is calculated as the ratio between the […].
(§7) The insecticidal compounds A (Tau fluvalinate) and B (mix partner) are formulated as equivalent compositions to eliminate the effects of differing formulation inerts on biological activity. Efficacy of the insecticidal compositions is evaluated with reference to a scale of 0% to 100% in comparison with untreated control plots. 0 means no damage and 100 means complete destruction of the harmful pests.
(§8) The experiments were conducted by applying either by synthesis/extraction or commercially available formulations of Tau fluvalinate and other mixture partners, alone or with their tank-mixed compositions with the same weight ratio. The compositions were diluted with water or some other suitable solvents to the stated concentration of the active compounds.
(§9) Each formulation with active ingredient is diluted with water or other suitable solvent(s) to the ppm (parts per million) level and biological efficacy trials on pests are conducted.

S. littoralis [1] = assay: Synergistic activity against S. littoralis, 2 days after larvae exposition (% control; Colby); assay type: in vivo, Spodoptera littoralis
Protocol: as §1, §2, §3, §4, §5, §6, §7, §8, §9

S. littoralis [2] = assay: Synergistic activity against S. littoralis, 3 days after larvae exposition (% control; Colby); assay type: in vivo, Spodoptera littoralis
Protocol: as §1, §2, §3, §4, §5, §6, §7, §8, §9

Compound	Observed % control (O) (B. tabaci; Table 4A, 0.2 ppm) [%]	Observed % control (O) (S. littoralis [1]; Table 1B, 10 ppm) [%]	Observed % control (O) (S. littoralis [1]; Table 4B, 8 ppm) [%]	Observed % control (O) (S. littoralis [2]; Table 3, 2 ppm) [%]	further results
CC(C)C(Nc1ccc(C(F)(F)F)cc1Cl)C(=O)OC(C#N)c1cccc(Oc2ccccc2)c1 (mixture of isomers) [Tau- Fluvalinate, (RS)-α-Cyano-3-phenoxybenzyl N-(2-chloro-α,α,α-trifluoro-p-tolyl)-D-valinate]	10.4	43	45	22.5	Observed % control (O) (B. tabaci; Table 1A, 0.1 ppm): 14%; Observed % control (O) (B. tabaci; Table 2, 20 ppm): 28.1%; Observed % control (O) (S. littoralis [1]; Table 4B, 16 ppm): 62.5%; Observed % control (O) (S. littoralis [2]; Table 3, 0.2 ppm): 2.5%; Observed % control (O) (S. littoralis [2]; Table 3, 10 ppm): 67.5%
O=C(/N=c1\ccccn1Cc1ccc(Cl)nc1)C(F)(F)F [Flupyrimin]	–	0	–	–	Observed % control (O) (S. littoralis [1]; Table 1B, 1 ppm): 0%; Observed % control (O) (S. littoralis [1]; Table 1B, 100 ppm): 18%
CCN1OC[C@@H](NC(=O)c2ccc(C3=NO[C@@](c4cc(Cl)c(F)c(Cl)c4)(C(F)(F)F)C3)cc2C)C1=O [Isocycloseram]	25.5	–	12.2	–	–
COc1cccc(C(=O)NN(C(=O)c2cc(C)cc(C)c2)C(C)(C)C)c1C [Methoxyfenozide]	–	–	–	70	Observed % control (O) (S. littoralis [2]; Table 3, 1 ppm): 52.5%

Reference: US20260305608A1, “MIXTURE COMBINATIONS FOR CROP PROTECTION” (ADAMA MAKHTESHIM LTD., priority 2023, published 2026)
